In PMC12261233, “Photoactivatable Cyclometalated Ir(III) Compound Penetrates the Blood-Brain Barrier in 3D Spheroidal and Advanced 3D Organoid Models of Inherently Resistant and Aggressive Brain Tumors” (ACS Pharmacology & Translational Science, 2025):

Tests used:
U87MG cells = test: Iridium uptake in Transwell binary coculture BBB model (ICP-MS), U87MG; format: cell-based, human; settings: 24 h
Description: The cellular uptake of anticancer compounds after penetrating the BBB is crucial for their efficacy in treating brain tumors. Understanding the extent of cellular uptake provides insights into the distribution and localization of these compounds within brain tumor cells, making such studies essential for assessing their potential efficacy. We utilized the static Transwell binary coculture BBB model, comprising an […] hCMEC/D3 cell line (representing the BBB) and a glioblastoma U87MG cell line. In this model, hCMEC/D3 cells were seeded on the apical side of the Transwell, while U87MG cells were seeded on the basolateral side. […] After a 24-h incubation, cells were harvested, counted, and the iridium uptake by both cell lines was analyzed using ICP-MS. […]
To confirm that the tested compounds can effectively target and accumulate in the desired U87MG glioblastoma cells, a coculture model was employed to monitor cellular uptake in both hCMEC/D3 cells and U87MG cells. […] The total iridium uptake by U87MG or hCMEC/D3 cells was analyzed 24 h after treatment. In brief, the apical and basolateral parts were separated, and each cellular model was harvested by trypsinization, pelleted by centrifugation, and counted. […] The final iridium content was determined through ICP-MS analysis. The experiments were replicated in triplicate, and the data are expressed as nanograms of iridium per one million cells.

U87MG spheroids = test: Morphology and diameter of spheroids after treatment and irradiation (phase contrast); format: cell-based, human; settings: 90 min treatment, 30 min blue light, 70 h drug-free incubation
Description: We further investigated the effects of treatment and irradiation on tumor spheroids by analyzing the morphology and diameter of spheroids from the U87MG cell line. Morphogenic parameters were assessed using phase contrast microscopy at 24-h intervals during the preformation phase and post-treatment, culminating at 144 h. Initial mean diameters of the spheroids were 280 ± 11 μm, increasing to 550 μm after 70 h of drug-free incubation. U87MG spheroids proliferated rapidly. Rapidly growing tumor cells are generally more sensitive to treatment, whereas quiescent tumor cells are moderately sensitive to metal-based compounds.
The spheroid models underwent treatment with varying concentrations of compounds, focusing on equitoxic concentrations during blue light exposure. The analysis included both irradiated and nonirradiated samples to assess nonspecific toxicity under dark conditions. […]
Figure S30. […] Phase contrast microphotographs were obtained for spheroids generated from U87MG cells (panel A), and the respective mean diameters were analyzed and shown in panel B for U87MG spheroids. […] Mean diameters for dark-incubated samples were analyzed at the same concentrations as those for irradiated samples to assess the impact of irradiation. […]

hCMEC/D3 cells = system: hCMEC/D3 cells; parameters: method as in number not printed (footnote c: Data taken from the ref); settings: comparison value; ref number not printed (footnote c: Data taken from the ref); cited from earlier work

CCCCn1c2[n+](c3cc(C(=O)OC)ccc31)[Ir-3]13([Cl])([c]4ccccc4-2)[n+]2ccccc2-c2cc(-c4ccc(C)cc4)cc([n+]21)-c1cccc[n+]13.F[P-](F)(F)(F)(F)F [Ir4]
iridium uptake by U87MG cells (U87MG cells; 10 μM applied apically, binary coculture BBB model, basolateral cells): 108 ± 14 ng Ir/10^6 cells
accumulation in U87MG cells compared to hCMEC/D3 cells (U87MG cells; 10 μM, coculture): more than 2 fold
effect on spheroid diameter / growth (U87MG spheroids): spheroid diameters decreased below their initial size

Cn1nnc2c(C(N)=O)ncn2c1=O [Temozolomide, reference compound]
P app (hCMEC/D3 cells): 0.36 × 10^–4 cm·s^–1
